Results from patent US6194408A, “Triazineone compounds for treating diseases due to Sarcocystis, Neospora and Toxoplasma” (Bayer Corporation, priority 1998, dated 2001).
Where “and” joins values, the source holds several entries; their conditions need not be identical. Equal entries are not always repeated. Values belong to the compound of their own block, whether it stands above or below them.

How the values were obtained:
Type in all cases: in vivo
[1] = Pharmacokinetics of a single oral dose of Toltrazuril in horses (blood levels); details: horses receiving single oral 10 mg/kg Toltrazuril
Description: A pharmacokinetic study was conducted in horses comparing blood levels of Toltrazuril, Ponazuril and Toltrazuril Sulfoxide at various times post a single dose of Toltrazuril. All horses received a single dose of 10 mg/kg, which was administered orally as a suspension. Blood samples were drawn at the time of treatment (0) and at 0.25, 0.5, 1, 2, 4, 6, 12, 24, 48 and 72 hours post treatment. […] This was an indication that Ponazuril, alone, would produce acceptable blood levels that are envisioned to pass the blood-brain barrier, a characteristic required to treat neurological diseases such as those caused by Sarcocystis neurona, Toxoplasma gondii, Neospora caninum and Neospora heugesi.

[2] = Cerebral spinal fluid drug levels / passage of blood-brain barrier after repeated doses of Toltrazuril in horses; details: for AVG Cerebral Spinal Fluid level (Table 5b) / AVG Cerebral Spinal Fluid level (Table 5a): CSF, average, Day 10
Description: (§1) This experiment was conducted in order to determine whether triazineones such as Toltrazuril can pass the blood-brain barrier. Normal horses were divided into three groups of three horses per group. Group 1 horses received Toltrazuril administered orally as a 5% suspension at a dose level of 2.5 mg/Kg. Group 2 horses received Toltrazuril administered orally as a 5% suspension at a dose level of 5.0 mg/Kg. Group 3 horses received Toltrazuril administered orally as a 5% suspension at a dose level of 7.5 mg/Kg. The dosing was repeated daily for 10 days. Blood samples were drawn at 48, 96 and 240 hours and the concentration of Toltrazuril, Toltrazuril sulfoxide and Ponazuril in the serum was measured. Ten days after the start of the treatment (Day 10), a sample of cerebral spinal fluid was removed from each horse and the concentrations of Toltrazuril, Toltrazuril Sulfoxide and Ponazuril were again measured in these samples. The concentrations of Toltrazuril, Toltrazuril Sulfoxide and Ponazuril in the serum and cerebral spinal fluid are reported in TABLES 5a and 5b.

[3] = Serum drug levels after repeated doses of Toltrazuril in horses; parameters: unit not given here; details: for Toltrazuril Level (Table 5b) / Toltrazuril Level (Table 5a): per horse; for AVG Toltrazuril Level (Table 5b) / AVG Toltrazuril Level (Table 5a): average
Description: as §1

- Levels in serum / bloodstream (in words) [1]: significant levels
SMILES: Cc1cc(-n2c(=O)[nH]c(=O)n(C)c2=O)ccc1Oc1ccc([S+]([O-])C(F)(F)F)cc1 (stereo not drawn) [Toltrazuril Sulfoxide]

- AVG Cerebral Spinal Fluid level (Table 5b) ([2]; 2.5 mg/Kg oral Toltrazuril daily for 10 days): 0.09
- AVG Cerebral Spinal Fluid level (Table 5a) ([2]; 2.5 mg/Kg oral daily for 10 days): 0.15
- AVG Cerebral Spinal Fluid level (Table 5b) ([2]; 5.0 mg/Kg oral Toltrazuril daily for 10 days): 0.16
- AVG Cerebral Spinal Fluid level (Table 5a) ([2]; 5.0 mg/Kg oral daily for 10 days): 0.19
- AVG Cerebral Spinal Fluid level (Table 5b) ([2]; 7.5 mg/Kg oral Toltrazuril daily for 10 days): 0.22
- AVG Cerebral Spinal Fluid level (Table 5a) ([2]; 7.5 mg/Kg oral daily for 10 days): 0.39
- Toltrazuril Level (Table 5b) ([3]; 2.5 mg/Kg oral Toltrazuril daily for 10 days, 240 Hrs, 2.5 mg/kg): 2.61 and 2.36 and 4.04
- Toltrazuril Level (Table 5a) ([3]; 2.5 mg/Kg oral daily for 10 days, 96 Hrs, 2.5 mg/kg): 9.85 and 9.09 and 13.1
- Toltrazuril Level (Table 5a) ([3]; 2.5 mg/Kg oral daily for 10 days, 240 Hrs, 2.5 mg/kg): 15.29 and 9.60 and 15.21
- Toltrazuril Level (Table 5b) ([3]; 5.0 mg/Kg oral Toltrazuril daily for 10 days, 48 Hrs, 5 mg/kg): 0.48 and 0.63
- Toltrazuril Level (Table 5b) ([3]; 5.0 mg/Kg oral Toltrazuril daily for 10 days, 96 Hrs, 5 mg/kg): 2.09 and 2.03 and 2.66
- Toltrazuril Level (Table 5a) ([3]; 5.0 mg/Kg oral daily for 10 days, 48 Hrs, 5 mg/kg): 7.28 and 9.18 and 9.26
- Toltrazuril Level (Table 5a) ([3]; 5.0 mg/Kg oral daily for 10 days, 96 Hrs, 5 mg/kg): 14.17 and 14.03 and 18.19
- Toltrazuril Level (Table 5a) ([3]; 5.0 mg/Kg oral daily for 10 days, 240 Hrs, 5 mg/kg): 24.92 and 16.54 and 17.59
- Toltrazuril Level (Table 5b) ([3]; 7.5 mg/Kg oral Toltrazuril daily for 10 days, 96 Hrs, 7.5 mg/kg): 2.69 and 2.89 and 3.09
- Toltrazuril Level (Table 5b) ([3]; 7.5 mg/Kg oral Toltrazuril daily for 10 days, 240 Hrs, 7.5 mg/kg): 6.31 and 6.37 and 7.06
- Toltrazuril Level (Table 5a) ([3]; 7.5 mg/Kg oral daily for 10 days, 48 Hrs, 7.5 mg/kg): 9.90 and 10.46
- Toltrazuril Level (Table 5a) ([3]; 7.5 mg/Kg oral daily for 10 days, 96 Hrs, 7.5 mg/kg): 27.74 and 19.55 and 18.47
- Toltrazuril Level (Table 5a) ([3]; 7.5 mg/Kg oral daily for 10 days, 240 Hrs, 7.5 mg/kg): 30.08 and 24.15 and 23.53
- AVG Toltrazuril Level (Table 5b) ([3]; 2.5 mg/Kg oral Toltrazuril daily for 10 days, 48 Hrs): 1.41
- AVG Toltrazuril Level (Table 5b) ([3]; 2.5 mg/Kg oral Toltrazuril daily for 10 days, 96 Hrs): 1.76
- AVG Toltrazuril Level (Table 5b) ([3]; 2.5 mg/Kg oral Toltrazuril daily for 10 days, 240 Hrs): 3.00
- AVG Toltrazuril Level (Table 5a) ([3]; 2.5 mg/Kg oral daily for 10 days, 48 Hrs): 6.70
- AVG Toltrazuril Level (Table 5a) ([3]; 2.5 mg/Kg oral daily for 10 days, 96 Hrs): 10.68
- AVG Toltrazuril Level (Table 5a) ([3]; 2.5 mg/Kg oral daily for 10 days, 240 Hrs): 13.37
- AVG Toltrazuril Level (Table 5b) ([3]; 5.0 mg/Kg oral Toltrazuril daily for 10 days, 48 Hrs): 0.53
- AVG Toltrazuril Level (Table 5b) ([3]; 5.0 mg/Kg oral Toltrazuril daily for 10 days, 96 Hrs): 2.26
- AVG Toltrazuril Level (Table 5b) ([3]; 5.0 mg/Kg oral Toltrazuril daily for 10 days, 240 Hrs): 5.02
- AVG Toltrazuril Level (Table 5a) ([3]; 5.0 mg/Kg oral daily for 10 days, 48 Hrs): 8.57
- AVG Toltrazuril Level (Table 5a) ([3]; 5.0 mg/Kg oral daily for 10 days, 96 Hrs): 15.46
- AVG Toltrazuril Level (Table 5a) ([3]; 5.0 mg/Kg oral daily for 10 days, 240 Hrs): 19.68
- AVG Toltrazuril Level (Table 5b) ([3]; 7.5 mg/Kg oral Toltrazuril daily for 10 days, 48 Hrs): 2.55
- AVG Toltrazuril Level (Table 5b) ([3]; 7.5 mg/Kg oral Toltrazuril daily for 10 days, 96 Hrs): 2.89
- AVG Toltrazuril Level (Table 5b) ([3]; 7.5 mg/Kg oral Toltrazuril daily for 10 days, 240 Hrs): 6.58
- AVG Toltrazuril Level (Table 5a) ([3]; 7.5 mg/Kg oral daily for 10 days, 48 Hrs): 10.18
- AVG Toltrazuril Level (Table 5a) ([3]; 7.5 mg/Kg oral daily for 10 days, 96 Hrs): 21.92
- AVG Toltrazuril Level (Table 5a) ([3]; 7.5 mg/Kg oral daily for 10 days, 240 Hrs): 25.95
SMILES: Cc1cc(-n2c(=O)[nH]c(=O)n(C)c2=O)ccc1Oc1ccc(SC(F)(F)F)cc1 [Toltrazuril]
- Crossing of the blood-brain barrier ([2]; horses, after oral Toltrazuril daily for 10 days): effectively cross the blood-brain barrier
